Reference: patent US10858367B2, “Compounds” (GLAXOSMITHKLINE INTELLECTUAL PROPERTY DEVELOPMENT LIMITED, priority 2017, dated 2020)

Columns and labels:
[1] = target: T1, full length G2019 human LRRK2 (Homo sapiens, UniProt Q5S007, R50H); assay: Full length G2019 human LRRK2 Inhibition Mass Spectrometry assay; format: biochemical; conditions: 25 nM LRRK2 enzyme, 25 uM LRRKtide, 2 mM ATP; RapidFire mass spectrometry; read-out: pIC50 in the full length G2019 human LRRK2 Inhibition Mass Spectrometry assay (converted)
T1 construct: made in house; host or cells: HEK293 6E cells transduced with BacMam virus (virus generated in Sf9 cells)
Text: a. Full Length G2019 Human LRRK2 Inhibition Mass Spectrometry Assay
This assay for Leucine Rich Repeat Kinase 2 (LRRK2) inhibition is based on the direct measurement of the peptide ‘LRRKtide’ (LRRKtide: RLGRDKYKT*LRQIRQ and “*” refers to the site of phosphorylation.) and phosphorylated ‘LRRKtide’ using a high throughput RapidFire mass spectrometry assay. Inhibitors are compounds that reduce the conversion of LRRKtide to phospho-LRRKtide.
Human G2019 LRRK2 Plasmid Preparation
Primers used for PCR cloning: • pHTBV-F:SEQ ID No: 1 • LRRK2 wt-F1:SEQ ID No: 2 • LRRK2 wt-R1: SEQ ID No: 3 • LRRK2 wt-F2: SEQ ID No: 4 • LRRK2 wt-R2: SEQ ID No: 5 • LRRK2 wt-F3:SEQ ID No: 6 • pHTBV-R: SEQ ID No: 7 pHTBV1-N-Flag-hu LRRK2 was generated by PCR amplifying the full length LRRK2 sequence with N terminal Flag tag from pcDNA3.1(+)_Human_LRRK2 (NCBI Reference Sequence: NP_940980.3) with the primers described above, and cloned into pHTBV1mcs3 vector between BamHI and KpnI sites.
The G2019 full length Flag-LRRK2 coding sequence is SEQ ID No: 8.
The translated amino acid sequence for human G2019 full length N terminal flag tagged LRRK2 protein is SEQ ID No: 9.
Protein Expression & Purification a) Expression of Flag Tagged Full Length G2019 Human LRRK2
HEK293 6E cells were incubated in a 37° C. incubator with a humidified atmosphere of 5% CO2 on an orbital shaker rotating at 110 rpm. On the day of transduction, the cell viability was higher than 98% and the cell density was in the range of 1×10^6˜1.5×10^6 cells/ml. HEK293 6E cells were centrifuged at 1,000 rpm for 10 min, and then the cells were resuspended in fresh Freestyle 293 expression medium (Invitrogen: 12338) with 0.1% F-68(Invitrogen: 24040-032) but without antibiotics (G418) at density of 1×10^6 cells/ml. BacMam virus with Flag-hu LRRK2 (genotypically normal) gene was centrifuged at 40,000 g for 2 hours, then resuspended in fresh Freestyle 293 expression medium. The resuspended virus was added into the cells in at MOI of 10. The cells were incubated in a 37° C. incubator with a humidified atmosphere of 5% CO2 in air on an orbital shaker rotating at 110 rpm. Cultures were harvested at approximately 48 hours post-transduction by centrifugation at 4,000 rpm for 20 min and pellets were frozen for purification. […]
b) Purification of Flag Tagged Full Length G2019 Human LRRK2
The suspended cells were lysed by sonication on ice for 30 min (2 secs on/4 sec off, 20% amplitude), and centrifuged at 10,000 rpm for 30 minutes at 4° C. The supernatant was incubated with 1 mL per litre of cell culture of anti-Flag magnetic beads (Sigma-Aldrich: M8823) at 4° C. for 3 hours, then the beads were washed by 5 mL (5 column volume) binding buffer (50 mM Tris pH7.5@ 4 C, 500 mM NaCl, 0.5 mM EDTA, 0.1% TritonX-100, 10% glycerol, freshly add 2 mM DTT) for three times. The Flag tagged LRRK2 proteins were eluted by Elution buffer (50 mM Tris pH7.5@ 4 C, 500 mM NaCl, 0.5 mM EDTA, 0.1% TritonX-100, 10% glycerol, freshly add 2 mM DTT, 250 ug/ml Flag peptide (Sigma-Aldrich:F3290)) at 4° C. for 2 hours. Flag peptide was removed by Zeba Spin Desalting Columns, 7K MWCO (Thermo-Fisher: 89893) and the buffer of eluted LRRK2 proteins was exchanged into Storage Buffer (50 mM Tris pH7.5@4 C, 150 mM NaCl, 0.5 mM EDTA, 0.02% Triton X-100, 2 mM DTT and 50% Glycerol) using Amicon Ultra Centrifugal Filter Units (100 kD) (Merck: UFC910096). Fractions containing LRRK2 proteins were pooled, aliquoted and stored at −80° C. Protein concentration was determined by Bradford protein assay, and protein purity was analyzed by NuPAG Novex 4-12% Bis-Tris Protein Gels (Invitrogen: NP0322BOX).
Assay Protocol • 1) A 10 mM test compound was dissolved in 100% DMSO and serially diluted 1 in 4. 100 nL of this dilution series was then added to a 384 well, v bottom polypropylene plate, excluding columns 6 and 18. 100 nL of DMSO was added to columns 6 and 18 as controls wells. […]

[2] = target: T2, LRRK2 Ser935 phosphorylation in SH-SY5Y cells over-expressing recombinant full length LRRK2 (Homo sapiens, UniProt Q5S007); assay: Recombinant cellular LRRK2 AlphaScreen assay; format: cell-based; conditions: human neuroblastoma SH-SY5Y cells, BacMam full length LRRK2, 60 minutes with compound, read-out: pIC50 in the recombinant cellular LRRK2 AlphaScreen assay (converted)
T2 construct: A BacMam virus expressing full length recombinant LRRK2 was purchased from Invitrogen; host or cells: SH-SY5Y human neuroblastoma cells transduced with BacMam LRRK2 virus
Outline: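 SH-SY5Y cells transduced with BacMam full-length human LRRK2 (MOI 50) for 24 h, then treated with compound (top final 10 μM) for 60 min at 37° C. Lysate pSer935 LRRK2 quantified by AlphaScreen using anti-pS935 and total-LRRK2 antibodies. Values from sigmoidal dose-response fit.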

T2 sequence (Q5S007 whole entry): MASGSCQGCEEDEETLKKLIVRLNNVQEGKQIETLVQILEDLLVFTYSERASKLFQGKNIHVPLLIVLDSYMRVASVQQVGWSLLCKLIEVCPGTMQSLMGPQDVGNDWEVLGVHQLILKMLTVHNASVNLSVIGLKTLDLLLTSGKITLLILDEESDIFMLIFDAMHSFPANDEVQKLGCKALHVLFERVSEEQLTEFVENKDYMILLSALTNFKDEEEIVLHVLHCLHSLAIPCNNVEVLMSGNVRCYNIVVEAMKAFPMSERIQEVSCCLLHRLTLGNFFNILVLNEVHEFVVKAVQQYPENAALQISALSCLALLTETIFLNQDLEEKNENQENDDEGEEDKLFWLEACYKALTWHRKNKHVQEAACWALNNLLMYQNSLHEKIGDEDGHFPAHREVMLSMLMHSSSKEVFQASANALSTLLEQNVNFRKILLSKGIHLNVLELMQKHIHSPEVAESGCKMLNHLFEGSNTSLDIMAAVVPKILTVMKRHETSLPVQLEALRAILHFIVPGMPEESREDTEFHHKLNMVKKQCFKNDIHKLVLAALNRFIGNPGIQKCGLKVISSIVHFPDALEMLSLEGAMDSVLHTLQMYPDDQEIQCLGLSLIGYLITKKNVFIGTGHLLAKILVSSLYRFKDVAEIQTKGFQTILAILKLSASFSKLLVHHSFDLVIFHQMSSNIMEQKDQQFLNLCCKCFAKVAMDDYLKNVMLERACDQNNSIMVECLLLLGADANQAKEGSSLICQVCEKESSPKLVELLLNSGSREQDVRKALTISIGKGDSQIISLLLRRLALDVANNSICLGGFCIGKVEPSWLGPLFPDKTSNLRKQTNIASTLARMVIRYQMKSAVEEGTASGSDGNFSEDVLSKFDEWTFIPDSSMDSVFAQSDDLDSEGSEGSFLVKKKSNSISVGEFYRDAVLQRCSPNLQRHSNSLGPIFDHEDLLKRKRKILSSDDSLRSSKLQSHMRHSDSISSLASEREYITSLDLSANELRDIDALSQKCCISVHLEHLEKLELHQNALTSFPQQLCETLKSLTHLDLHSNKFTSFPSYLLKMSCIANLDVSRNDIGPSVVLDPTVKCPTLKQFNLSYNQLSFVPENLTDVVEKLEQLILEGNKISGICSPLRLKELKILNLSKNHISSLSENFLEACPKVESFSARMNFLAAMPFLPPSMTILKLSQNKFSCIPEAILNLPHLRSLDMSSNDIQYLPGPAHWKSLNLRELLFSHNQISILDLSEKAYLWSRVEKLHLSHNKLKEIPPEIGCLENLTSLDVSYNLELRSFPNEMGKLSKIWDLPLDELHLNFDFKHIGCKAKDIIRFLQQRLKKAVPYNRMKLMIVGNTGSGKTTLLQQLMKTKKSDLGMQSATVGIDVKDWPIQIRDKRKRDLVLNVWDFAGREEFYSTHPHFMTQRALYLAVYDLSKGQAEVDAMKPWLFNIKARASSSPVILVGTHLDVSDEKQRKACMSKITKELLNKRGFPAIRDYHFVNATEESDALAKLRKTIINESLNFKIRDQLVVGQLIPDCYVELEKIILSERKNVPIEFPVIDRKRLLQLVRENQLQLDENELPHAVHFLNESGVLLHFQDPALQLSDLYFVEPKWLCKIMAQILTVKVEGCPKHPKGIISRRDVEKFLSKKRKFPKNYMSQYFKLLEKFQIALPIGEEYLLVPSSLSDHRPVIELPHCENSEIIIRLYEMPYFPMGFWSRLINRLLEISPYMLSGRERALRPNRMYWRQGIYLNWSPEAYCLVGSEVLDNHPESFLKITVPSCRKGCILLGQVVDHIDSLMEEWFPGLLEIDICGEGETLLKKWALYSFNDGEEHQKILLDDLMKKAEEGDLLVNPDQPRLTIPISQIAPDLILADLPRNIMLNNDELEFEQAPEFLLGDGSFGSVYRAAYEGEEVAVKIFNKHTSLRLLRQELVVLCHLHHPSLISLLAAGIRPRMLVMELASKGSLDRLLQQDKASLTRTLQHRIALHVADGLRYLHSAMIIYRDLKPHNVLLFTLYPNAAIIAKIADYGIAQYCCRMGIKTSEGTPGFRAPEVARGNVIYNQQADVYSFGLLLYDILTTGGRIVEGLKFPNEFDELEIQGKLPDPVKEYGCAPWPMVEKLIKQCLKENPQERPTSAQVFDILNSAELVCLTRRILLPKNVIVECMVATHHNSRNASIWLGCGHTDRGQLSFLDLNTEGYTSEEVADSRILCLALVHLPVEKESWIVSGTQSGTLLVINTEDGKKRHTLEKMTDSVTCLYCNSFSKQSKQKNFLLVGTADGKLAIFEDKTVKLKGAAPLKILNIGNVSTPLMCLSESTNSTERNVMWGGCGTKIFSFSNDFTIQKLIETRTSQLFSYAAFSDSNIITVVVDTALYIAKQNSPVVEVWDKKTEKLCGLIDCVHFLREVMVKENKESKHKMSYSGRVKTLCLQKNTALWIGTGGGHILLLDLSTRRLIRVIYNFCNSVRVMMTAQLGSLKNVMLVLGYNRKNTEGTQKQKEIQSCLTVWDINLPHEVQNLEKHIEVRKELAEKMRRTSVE
T1 sequence (Q5S007 with tags, fused parts or gaps R50H): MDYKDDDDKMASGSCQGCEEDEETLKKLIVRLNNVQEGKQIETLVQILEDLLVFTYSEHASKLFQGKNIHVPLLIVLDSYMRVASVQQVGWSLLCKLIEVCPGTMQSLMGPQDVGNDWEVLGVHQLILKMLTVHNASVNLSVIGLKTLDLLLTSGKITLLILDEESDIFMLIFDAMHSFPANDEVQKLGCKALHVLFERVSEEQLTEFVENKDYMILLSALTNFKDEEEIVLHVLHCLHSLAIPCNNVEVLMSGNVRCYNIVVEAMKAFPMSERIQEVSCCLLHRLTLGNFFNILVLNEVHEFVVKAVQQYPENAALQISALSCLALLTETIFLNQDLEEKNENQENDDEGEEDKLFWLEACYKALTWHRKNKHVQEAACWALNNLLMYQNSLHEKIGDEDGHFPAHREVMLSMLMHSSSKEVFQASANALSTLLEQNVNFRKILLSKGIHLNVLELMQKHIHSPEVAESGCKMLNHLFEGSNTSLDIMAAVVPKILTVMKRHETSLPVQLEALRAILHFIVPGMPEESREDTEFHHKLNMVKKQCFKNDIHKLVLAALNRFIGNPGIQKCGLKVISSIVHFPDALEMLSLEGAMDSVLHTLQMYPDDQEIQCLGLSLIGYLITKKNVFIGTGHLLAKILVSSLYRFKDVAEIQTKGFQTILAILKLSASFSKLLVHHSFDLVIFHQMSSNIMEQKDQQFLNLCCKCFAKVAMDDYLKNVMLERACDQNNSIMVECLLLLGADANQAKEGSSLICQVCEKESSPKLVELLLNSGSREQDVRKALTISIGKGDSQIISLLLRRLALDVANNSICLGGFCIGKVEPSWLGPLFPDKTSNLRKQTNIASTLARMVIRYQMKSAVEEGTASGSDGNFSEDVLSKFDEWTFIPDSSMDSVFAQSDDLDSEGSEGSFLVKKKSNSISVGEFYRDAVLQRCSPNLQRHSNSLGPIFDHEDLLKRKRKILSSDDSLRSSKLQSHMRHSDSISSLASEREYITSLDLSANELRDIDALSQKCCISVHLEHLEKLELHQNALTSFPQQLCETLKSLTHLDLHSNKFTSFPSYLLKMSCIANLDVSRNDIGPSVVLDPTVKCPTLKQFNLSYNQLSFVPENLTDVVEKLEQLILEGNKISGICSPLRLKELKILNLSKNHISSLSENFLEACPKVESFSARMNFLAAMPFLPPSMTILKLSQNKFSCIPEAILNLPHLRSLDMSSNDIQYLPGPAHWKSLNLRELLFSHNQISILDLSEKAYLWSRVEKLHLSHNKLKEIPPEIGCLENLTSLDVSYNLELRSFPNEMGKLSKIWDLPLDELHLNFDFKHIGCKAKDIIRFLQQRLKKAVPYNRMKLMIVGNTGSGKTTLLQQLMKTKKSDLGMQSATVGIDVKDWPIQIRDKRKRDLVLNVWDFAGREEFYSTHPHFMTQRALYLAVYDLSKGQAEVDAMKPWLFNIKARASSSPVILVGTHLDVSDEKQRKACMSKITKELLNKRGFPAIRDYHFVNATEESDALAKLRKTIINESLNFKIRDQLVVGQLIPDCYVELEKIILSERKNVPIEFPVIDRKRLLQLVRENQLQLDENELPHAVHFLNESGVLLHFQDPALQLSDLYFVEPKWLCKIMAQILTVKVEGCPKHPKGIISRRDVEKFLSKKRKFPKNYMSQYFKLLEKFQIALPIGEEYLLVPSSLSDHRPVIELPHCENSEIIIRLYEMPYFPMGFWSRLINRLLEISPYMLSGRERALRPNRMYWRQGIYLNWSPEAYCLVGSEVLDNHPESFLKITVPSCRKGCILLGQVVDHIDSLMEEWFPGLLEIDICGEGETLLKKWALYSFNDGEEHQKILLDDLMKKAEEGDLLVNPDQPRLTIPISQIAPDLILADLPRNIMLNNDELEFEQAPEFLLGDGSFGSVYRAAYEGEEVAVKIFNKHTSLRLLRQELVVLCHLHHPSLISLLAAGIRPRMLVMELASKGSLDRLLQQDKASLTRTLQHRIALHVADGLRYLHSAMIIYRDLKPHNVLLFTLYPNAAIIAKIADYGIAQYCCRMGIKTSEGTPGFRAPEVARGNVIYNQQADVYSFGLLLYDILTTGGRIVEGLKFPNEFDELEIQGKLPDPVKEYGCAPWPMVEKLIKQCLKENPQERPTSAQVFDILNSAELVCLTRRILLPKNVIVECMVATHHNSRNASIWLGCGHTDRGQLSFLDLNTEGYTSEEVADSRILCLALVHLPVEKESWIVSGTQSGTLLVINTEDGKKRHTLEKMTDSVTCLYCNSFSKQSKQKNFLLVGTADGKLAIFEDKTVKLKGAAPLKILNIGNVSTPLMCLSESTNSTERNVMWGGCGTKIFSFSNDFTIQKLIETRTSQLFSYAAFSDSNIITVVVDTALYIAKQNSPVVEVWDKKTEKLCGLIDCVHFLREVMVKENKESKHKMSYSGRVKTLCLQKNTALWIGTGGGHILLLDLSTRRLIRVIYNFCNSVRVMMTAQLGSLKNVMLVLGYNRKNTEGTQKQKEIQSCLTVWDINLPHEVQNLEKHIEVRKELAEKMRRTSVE

| IC50 [1] | IC50 [2] | Compound |
| --- | --- | --- |
| ≤ 100 nM | ≤ 1000 nM | COc1nc(N2C[C@H]3C[C@@H]2CO3)cc(-n2ncc3cc(C)c(C4C5CN([C@H]6CCOC6)CC54)cc32)n1 (stereo partly drawn) [Example E175, (1R,4R)-5-(2-methoxy-6-(5-methyl-6-(3-((S)-tetrahydrofuran-3-yl)-3-azabicyclo[3.1.0]hexan-6-yl)-1H-indazol-1-yl)pyrimidin-4-yl)-2-oxa-5-azabicyclo[2.2.1]heptane] |
| ≤ 10 nM | ≤ 10 nM | COc1nc(N2C[C@@]3(CO)C[C@@H]2CO3)cc(-n2ncc3cc(C)c(C4CCOCC4)cc32)n1 [Example E178, ((1R,4R)-5-(2-methoxy-6-(5-methyl-6-(tetrahydro-2H-pyran-4-yl)-1H-indazol-1-yl)pyrimidin-4-yl)-2-oxa-5-azabicyclo[2.2.1]heptan-1-yl)methanol] |
